According to article PMC11501026, “L-Arginine and asymmetric dimethylarginine (ADMA) transport across the mouse blood-brain and blood-CSF barriers: Evidence of saturable transport at both interfaces and CNS to blood efflux” (PLOS ONE, 2024):
Values joined by “and” are separate entries in the source; they are usually repeats but may differ in a detail not shown here. Identical values can stand only once. Counter-ions that a name gives are not always drawn. Like-named read-outs stand apart in the source and are kept apart here.

What was measured:
[1] = capillary depletion analysis after in situ brain perfusion; format: in vivo, mouse; design: [3H] ADMA and [14C] Sucrose uptake, homogenate / Difference (ADMA minus Sucrose), homogenate / [3H] ADMA and [14C] Sucrose uptake, supernatant / Difference (ADMA minus Sucrose), supernatant / uptake, homogenate / uptake, supernatant: unit not given here; conditions: 5ml/min; for Kp at 20 min, 62.5 nM / Kp at […] / Kp at 30 min, 62.5 nM / Kp at 10 min, 62.5 nM: male, BALB/c, mouse; for Kp at […]: 2.5 mins; for Kp at 30 min, 62.5 nM / Kp at 10 min, 62.5 nM: other: in situ brain perfusion
Procedure: The microvasculature within a sample of brain tissue can be separated from the brain parenchyma using capillary depletion analysis. Following perfusion, the remaining brain tissue after microdissection of the regions described above (typically 200–300 mg) underwent capillary depletion following a method modified for mouse. […]

[2] = system: [3H]-ADMA transport across the blood-brain and blood-CSF barriers; experiment: self-inhibition, in situ perfusion: [^3H]-ADMA with 100 μM unlabelled ADMA; format: in vivo, mouse; conditions: male, Balb/c, mouse, other: in situ brain perfusion, with unlabelled ADMA 100 µM, 10 mins, Balb/c ♂, 5ml/min
Procedure: Self-inhibition experiments were also performed. […] Cross-competition experiments were also performed.
The percentage change in the RTissue uptake values achieved in the absence or presence of an unlabelled inhibitor can be calculated by means of Eq 4.
%change=RTissue−RInhibition/RTissue×100 Eq 4
We define RInhibition as the RTissue uptake in the presence of an inhibitor in the artificial plasma.
A decrease in the uptake of radiolabelled solute in the presence of unlabelled inhibitor is indicative of a saturable influx transport system. Conversely, an increase in the uptake of radiolabelled solute in the presence of unlabelled inhibitor is indicative of a saturable efflux transport system.

[3] = CONTROL, 10 mins, Balb/c ♂, individual mouse
[4] = [3H] ADMA + [14C] Sucrose, 30 mins, Balb/c ♂, individual mice
[5] = capillary depletion supernatant (brain parenchyma), Difference (ADMA minus Sucrose), supernatant, mean
[6] = capillary depletion supernatant (brain parenchyma), [3H] ADMA and [14C] Sucrose uptake, supernatant, mean
[7] = whole-brain homogenate (capillary depletion), Difference (ADMA minus Sucrose), homogenate, mean
[8] = whole-brain homogenate (capillary depletion), [3H] ADMA and [14C] Sucrose uptake, homogenate, mean

[3H] ADMA and [14C] Sucrose uptake, supernatant [1, 3]: 0.1611 and 0.1028 and 0.139 and 0.1685 | Kp at 20 min, 62.5 nM ([1]; capillary depletion pellet (endothelial cell-enriched), Difference (ADMA minus Sucrose), pellet, mean): 0.0248 | Kp at 20 min, 62.5 nM ([1]; capillary depletion pellet (endothelial cell-enriched), [3H] ADMA and [14C] Sucrose uptake, pellet, mean): 0.0276 | Kp at […] ([1]; capillary depletion supernatant (brain parenchyma), Difference (ADMA minus Sucrose), supernatant, individual mouse): 0.0611 | Kp at […] [1, 5]: 0.0483 | Kp at 20 min, 62.5 nM [1, 5]: 0.14 | Kp at […] ([1]; capillary depletion supernatant (brain parenchyma), [3H] ADMA and [14C] Sucrose uptake, supernatant, individual mouse): 0.0737 | Kp at […] [1, 6]: 0.0581 | Kp at 20 min, 62.5 nM [1, 6]: 0.156 | Kp at 30 min, 62.5 nM ([1]; capillary depletion supernatant (brain parenchyma), Difference (ADMA minus Sucrose), supernatant, 30 mins, Balb/c ♂, mean): 0.0722 | Kp at 10 min, 62.5 nM ([1]; capillary depletion supernatant (brain parenchyma), Difference (ADMA minus Sucrose), supernatant, CONTROL, 10 mins, Balb/c ♂, mean): 0.0862 | Kp at 30 min, 62.5 nM ([1]; capillary depletion supernatant (brain parenchyma), [3H] ADMA + [14C] Sucrose, 30 mins, Balb/c ♂, mean, read-out: uptake, supernatant): 0.0993 | Kp at 10 min, 62.5 nM ([1]; capillary depletion supernatant (brain parenchyma), [3H] ADMA and [14C] Sucrose uptake, supernatant, CONTROL, 10 mins, Balb/c ♂, individual mouse): 0.119 | Kp at 10 min, 62.5 nM ([1]; capillary depletion supernatant (brain parenchyma), [3H] ADMA and [14C] Sucrose uptake, supernatant, CONTROL, 10 mins, Balb/c ♂, mean): 0.138 | Kp at […] ([1]; endothelial cell-enriched pellet (capillary depletion), Difference (ADMA minus Sucrose), pellet, individual mouse): 0.0108 | Kp at […] ([1]; endothelial cell-enriched pellet (capillary depletion), Difference (ADMA minus Sucrose), pellet, mean): 0.0108 | Kp at […] ([1]; endothelial cell-enriched pellet (capillary depletion), [3H] ADMA and [14C] Sucrose uptake, pellet, individual mouse): 0.0124 | Kp at […] ([1]; endothelial cell-enriched pellet (capillary depletion), [3H] ADMA and [14C] Sucrose uptake, pellet, mean): 0.0131 | Kp at 30 min, 62.5 nM ([1]; endothelial cell-enriched pellet (capillary depletion), Difference (ADMA minus Sucrose), pellet, 30 mins, Balb/c ♂, individual mice): 0.0153 | Kp at 30 min, 62.5 nM ([1]; endothelial cell-enriched pellet (capillary depletion), Difference (ADMA minus Sucrose), pellet, 30 mins, Balb/c ♂, mean): 0.012 | Kp at 10 min, 62.5 nM ([1]; endothelial cell-enriched pellet (capillary depletion), Difference (ADMA minus Sucrose), pellet, CONTROL, 10 mins, Balb/c ♂, mean): 0.00783 | Kp at 30 min, 62.5 nM ([1]; endothelial cell-enriched pellet (capillary depletion), [3H] ADMA + [14C] Sucrose, 30 mins, Balb/c ♂, individual mice, read-out: uptake, pellet): 0.0184 | Kp at 30 min, 62.5 nM ([1]; endothelial cell-enriched pellet (capillary depletion), [3H] ADMA + [14C] Sucrose, 30 mins, Balb/c ♂, mean, read-out: uptake, pellet): 0.0166 | Kp at 10 min, 62.5 nM ([1]; endothelial cell-enriched pellet (capillary depletion), [3H] ADMA and [14C] Sucrose uptake, pellet, CONTROL, 10 mins, Balb/c ♂, mean): 0.0527 | Kp at […] [1, 7]: 0.0793 | Kp at 20 min, 62.5 nM [1, 7]: 0.208 | Kp at […] [1, 8]: 0.0942 | Kp at 20 min, 62.5 nM [1, 8]: 0.234 | Kp at 30 min, 62.5 nM ([1]; whole-brain homogenate (capillary depletion), Difference (ADMA minus Sucrose), homogenate, 30 mins, Balb/c ♂, mean): 0.122 | Kp at 10 min, 62.5 nM ([1]; whole-brain homogenate (capillary depletion), Difference (ADMA minus Sucrose), homogenate, CONTROL, 10 mins, Balb/c ♂, individual mouse): 0.136 | Kp at 10 min, 62.5 nM ([1]; whole-brain homogenate (capillary depletion), Difference (ADMA minus Sucrose), homogenate, CONTROL, 10 mins, Balb/c ♂, mean): 0.127 | Kp at 30 min, 62.5 nM ([1]; whole-brain homogenate (capillary depletion), [3H] ADMA + [14C] Sucrose, 30 mins, Balb/c ♂, mean, read-out: uptake, homogenate): 0.156 | Kp at 10 min, 62.5 nM ([1]; whole-brain homogenate (capillary depletion), [3H] ADMA and [14C] Sucrose uptake, homogenate, CONTROL, 10 mins, Balb/c ♂, mean): 0.224 | Kp at 10 min, 62.5 nM ([2]; CSF, Difference (ADMA minus Sucrose), CSF, + 100uM un-labelled ADMA, mean): 2.01 | Kp at 10 min, 62.5 nM ([2]; CSF, [3H] ADMA + [14C] Sucrose + 100uM un-labelled ADMA, mean, read-out: uptake into CSF): 2.15 | Kp at 10 min, 62.5 nM ([2]; cerebellum, Difference (ADMA minus Sucrose), cerebellum, + 100uM un-labelled ADMA, individual mice): 0.0515 | Kp at 10 min, 62.5 nM ([2]; cerebellum, Difference (ADMA minus Sucrose), cerebellum, + 100uM un-labelled ADMA, mean): 0.0701 | Kp at 10 min, 62.5 nM ([2]; cerebellum, [3H] ADMA + [14C] Sucrose + 100uM un-labelled ADMA, individual mice, read-out: uptake into cerebellum): 0.09 | Kp at 10 min, 62.5 nM ([2]; cerebellum, [3H] ADMA + [14C] Sucrose + 100uM un-labelled ADMA, mean, read-out: uptake into cerebellum): 0.121 | Kp at 10 min, 62.5 nM ([2]; homogenate, Difference (ADMA minus Sucrose), homogenate, + 100uM un-labelled ADMA, mean): 0.0396 | Kp at 10 min, 62.5 nM ([2]; homogenate, [3H] ADMA + [14C] Sucrose + 100uM un-labelled ADMA, individual mice, read-out: uptake, homogenate): 0.0686 | Kp at 10 min, 62.5 nM ([2]; homogenate, [3H] ADMA + [14C] Sucrose + 100uM un-labelled ADMA, mean, read-out: uptake, homogenate): 0.0884 | Kp at 10 min, 62.5 nM ([2]; hypothalamus, Difference (ADMA minus Sucrose), hypothalamus, + 100uM un-labelled ADMA, mean): 0.0972 | Kp at 10 min, 62.5 nM ([2]; hypothalamus, [3H] ADMA + [14C] Sucrose + 100uM un-labelled ADMA, mean, read-out: uptake into hypothalamus): 0.146 | Kp at 10 min, 62.5 nM ([2]; pellet, Difference (ADMA minus Sucrose), pellet, + 100uM un-labelled ADMA, individual mice): 0.01 | Kp at 10 min, 62.5 nM ([2]; pellet, [3H] ADMA + [14C] Sucrose + 100uM un-labelled ADMA, individual mice, read-out: uptake, pellet): 0.0144 | Kp at 10 min, 62.5 nM ([2]; pellet, [3H] ADMA + [14C] Sucrose + 100uM un-labelled ADMA, mean, read-out: uptake, pellet): 0.0179 | Kp at 10 min, 62.5 nM ([2]; pituitary gland, Difference (ADMA minus Sucrose), pituitary gland, + 100uM un-labelled ADMA, mean): 0.586 | Kp at 10 min, 62.5 nM ([2]; pituitary gland, [3H] ADMA + [14C] Sucrose + 100uM un-labelled ADMA, mean, read-out: uptake into pituitary gland): 0.681 | Kp at 10 min, 62.5 nM ([2]; pons, Difference (ADMA minus Sucrose), pons, + 100uM un-labelled ADMA, mean): 0.0724 | Kp at 10 min, 62.5 nM ([2]; pons, [3H] ADMA + [14C] Sucrose + 100uM un-labelled ADMA, individual mice, read-out: uptake into pons): 0.102 | Kp at 10 min, 62.5 nM ([2]; pons, [3H] ADMA + [14C] Sucrose + 100uM un-labelled ADMA, mean, read-out: uptake into pons): 0.127 | Kp at 10 min, 62.5 nM ([2]; supernatant, Difference (ADMA minus Sucrose), supernatant, + 100uM un-labelled ADMA, mean): 0.0316 | Kp at 10 min, 62.5 nM ([2]; supernatant, [3H] ADMA + [14C] Sucrose + 100uM un-labelled ADMA, individual mice, read-out: uptake, supernatant): 0.047 | Kp at 10 min, 62.5 nM ([2]; supernatant, [3H] ADMA + [14C] Sucrose + 100uM un-labelled ADMA, mean, read-out: uptake, supernatant): 0.0703 | Kp at 10 min, 62.5 nM ([2]; thalamus, Difference (ADMA minus Sucrose), thalamus, + 100uM un-labelled ADMA, mean): 0.0727 | Kp at 10 min, 62.5 nM ([2]; thalamus, [3H] ADMA + [14C] Sucrose + 100uM un-labelled ADMA, individual mice, read-out: uptake into thalamus): 0.077 | Kp at 10 min, 62.5 nM ([2]; thalamus, [3H] ADMA + [14C] Sucrose + 100uM un-labelled ADMA, mean, read-out: uptake into thalamus): 0.117
Compound: CN(C)C(N)=NCCC[C@H](N)C(=O)O [ADMA, N^G,N^G-dimethylarginine dihydrochloride]
[3H] ADMA and [14C] Sucrose uptake, homogenate [1, 3]: 0.1657 and 0.3684 and 0.1901 and 0.1639 and 0.2325 | [3H] ADMA and [14C] Sucrose uptake, pellet [1, 3]: 0.02884 and 0.07512 and 0.03345 and 0.03555 and 0.0904 | uptake, homogenate [1, 4]: 0.08533 and 0.3484 and 0.1186 and 0.07545 and 0.1502 | uptake, pellet [1, 4]: 0.01575 and 0.016 and 0.01288 and 0.01992 | uptake, supernatant [1, 4]: 0.135 and 0.1332 and 0.05406 and 0.0758 and 0.09832
